The values that follow come from PMC11032351, “Epigenetic modulation through BET bromodomain inhibitors as a novel therapeutic strategy for progranulin-deficient frontotemporal dementia” (Scientific Reports, 2024).

This experiment relates to PGRN protein levels. Kind of experiment: PGRN quantification (Jess) in human NPCs. Particulars: for increase in PGRN protein levels: 1 µM for 24 h; for increase in PGRN: lysed immediately. In kind it is cell-based. The procedure:
PGRN capillary gel electrophoresis experiments were performed using Jess (Bio-Techne) and data were processed and analyzed using Compass for Simple Western software (version 6.0). Runs were conducted using EZ Standard Pack 1 12-230 kDa (Bio-Techne PS-ST01EZ-8), 12-230 kDa pre-filled plates (PS-PP03), 12-230 kDa separation module (SMW004), anti-rabbit HRP detection ([…]-001), and total protein detection modules (DM-TP01, biotin labeling reagent 042-973) according to the manufacturer's instructions, and with anti-PGRN primary (Abcam ab208777) diluted 1:50 in milk-free antibody dilution buffer (043-524). […] All intensity quantifications are normalized to the total protein assay quantification unless otherwise indicated. NPCs were cultured normally in 6-well plates as described previously. Upon reaching confluency, DMSO or MLN-4924 (Cayman #15,217, 10 mM stock in DMSO) were diluted 1:5000 into NPC media with growth factors. 1 mL of media was aspirated from the cell cultures, and 1 mL of MLN-4924 or DMSO dilutions were then added to respective wells (final well concentration: 1 μM MLN-4924 in select wells, 0.01% DMSO for all wells). Plates returned to the incubator. […] Plates returned to the incubator. After 4 h, to the indicated wells is directly added 1 μL 2 mM mivebresib (MedChem Express HY-100015) in DMSO for a final concentration of 1 μM, or 1 μL DMSO. All plates were returned to the incubator overnight. The next day, 24 h from the addition of mivebresib, plates were removed from the incubator, and all wells were washed with 2 mL PBS, and then lysed in 300 μL M-PER lysis buffer with protease inhibitors. Cells were allowed to lyse for 15 min at 4 °C with light nutation, and then lysate was transferred to a 1.5-mL Eppendorf tube which was then spun down at 20 k rcf at 4 °C for 10 min. 200 μL of supernatant was then transferred to a fresh, labeled Eppendorf rube, which was then stored at - 20 °C prior to further analysis. Sample concentration was quantified using the BCA assay as described above, and normalized to 250 μg/mL in M-PER lysis buffer prior to PGRN quantification using the Jess. NPCs were cultured normally as described previously. 6-well plates were seeded at 300,000 cells/well in 2 mL of NPC media with EGF, bFGF, and heparin as described above. Cells were allowed to grow to confluency for three nights at 37 °C with 5% CO2. […] These solutions were then diluted 1:10 in NPC media with growth factors containing 0.2% DMSO to make 100 nM compound solutions. Treatment wells were washed with 2 mL PBS prior to addition of 2 mL NPC media with growth factors containing compound (or DMSO only) at indicated concentrations (3 replicates per condition, 6 DMSO replicates). Plates were then allowed to incubate at 37 °C with 5% CO2 for 24 h. After 24 h, cells were removed from the incubator, washed with 1 mL PBS, and then lysed with 500 μL M-PER lysis buffer (Thermo Fisher #78,501) with 1 cOmplete Mini, EDTA-free protease inhibitor added (Sigma-Aldrich#11,836,170,001) per 15 mL lysis buffer. Plates were allowed to nutate at 4 °C for 15 min before transferring the lysate to 1.5 mL Eppendorf tubes, which were then spun down at 20,000 rcf at 4 °C for 10 min. 400 μL of the supernatant was then transferred to fresh 1.5-mL Eppendorf tubes, which were then frozen down at - 80 °C prior to further use. Samples were removed from the - 80 °C and concentrations were determined via BCA assay (Thermo Scientific #23,227) using a pre-diluted BSA standard (Life Technologies #23,208) on a 96-well polystyrene plate (Thermo Fisher #12,565,500). Samples were diluted to 0.25 mg/mL using M-PER lysis buffer prior to PGRN quantification using the Jess. NPCs were cultured as described above, and seeded onto coated 24-well plates at 150,000 cells/well in 1 mL NPC media with growth factors. Plates were allowed to grow to ~ 100% confluency for three nights at 37 °C with 5% CO2. […] Plates were allowed to incubate overnight at 37 °C with 5% CO2 for 24 h. […]

Turning to `Cn1cc(-c2cccnc2Oc2ccc(F)cc2)c2cc[nH]c2c1=O` [Compound 18A, 4-(2-(4-fluorophenoxy)pyridin-3-yl)-6-methyl-1H-pyrrolo[2,3-c]pyridin-7(6H)-one], the “increase in PGRN protein levels” value is recorded as “> twofold”.

`Cn1ccc2c(-c3cccnc3Sc3ccc(F)cc3)c[nH]c2c1=O` [Compound 84B, 3-(2-((4-fluorophenyl)thio)pyridin-3-yl)-6-methyl-1,6-dihydro-7H-pyrrolo[2,3-c]pyridin-7-one]: the “increase in PGRN protein levels” value is given as “significantly enhance PGRN protein levels”.

On to `Cn1cc(-c2cccnc2Nc2ccc(F)cc2)c2cc[nH]c2c1=O` [Compound 85A, 4-(2-((4-fluorophenyl)amino)pyridin-3-yl)-6-methyl-1,6-dihydro-7H-pyrrolo[2,3-c]pyridin-7-one], for which the “increase in PGRN protein levels” value is recorded as “> twofold”.

With `CCS(=O)(=O)Nc1ccc(Oc2ccc(F)cc2F)c(-c2cn(C)c(=O)c3[nH]ccc23)c1` [mivebresib], the “enhancement of PGRN protein levels” value (100 nM, 24 h) is given as ~ 120% and the “enhancement of PGRN protein levels” value (1 µM, 24 h) is on record as about 140%. Also, the “enhancement of PGRN protein levels after washout” value reads like this: (1 µM for 2 h, then 22 h of incubation post-washout) “> twofold”; (1 µM for 8 h, washout, lysis 24 h from compound addition) “more pronounced effect”. The “Normalized PGRN (Fold-DMSO)” value is, setting by setting: (1 µM mivebresib 24 h, vs matching bar without mivebresib) 1.82 x; (1 µM mivebresib 24 h with 300 nM dBET6) 1.26 x; (1 µM mivebresib 24 h with 1 µM MLN-4924 and 300 nM dBET6) 1.47 x. The “increase in PGRN” value by setting is: (1 µM, 8 h) ~ 1.4 fold; (1 µM, 24 h) ~ 2.7 fold.

With `Cn1cc(-c2cccnc2Oc2ccc(F)c(F)c2)c2cc[nH]c2c1=O` [Compound 81A, 4-(2-(3,4-difluorophenoxy)pyridin-3-yl)-6-methyl-1,6-dihydro-7H-pyrrolo[2,3-c]pyridin-7-one], the “increase in PGRN protein levels” value was “> twofold”.

Take `Cn1cc(-c2cccnc2Oc2cc(F)cc(F)c2)c2cc[nH]c2c1=O` [Compound 82A, 4-(2-(3,5-difluorophenoxy)pyridin-3-yl)-6-methyl-1,6-dihydro-7H-pyrrolo[2,3-c]pyridin-7-one]: the “increase in PGRN protein levels” value is on record as “> twofold”.

Take `Cn1ccc2c(-c3cccnc3Oc3cc(F)cc(F)c3)c[nH]c2c1=O` [Compound 82B, 3-(2-(3,5-difluorophenoxy)pyridin-3-yl)-6-methyl-1,6-dihydro-7H-pyrrolo[2,3-c]pyridin-7-one]: the “increase in PGRN protein levels” value is “significantly enhance PGRN protein levels”.

Take `Cn1ccc2c(-c3cccnc3Nc3ccc(F)cc3)c[nH]c2c1=O` [Compound 85B, 3-(2-((4-fluorophenyl)amino)pyridin-3-yl)-6-methyl-1,6-dihydro-7H-pyrrolo[2,3-c]pyridin-7-one]: the “increase in PGRN protein levels” value was “unable to upregulate PGRN”.

In the case of `Cn1cc(-c2cc(F)cnc2Oc2ccc(F)cc2)c2cc[nH]c2c1=O` [Compound 86A, 4-(5-fluoro-2-(4-fluorophenoxy)pyridin-3-yl)-6-methyl-1,6-dihydro-7H-pyrrolo[2,3-c]pyridin-7-one], the “increase in PGRN protein levels” value was “less substantial response”.

For the compound `Cn1ccc2c(-c3cccnc3Oc3ccc(F)cc3)c[nH]c2c1=O` [Compound 18B, 3-[2-(4-fluorophenoxy)pyridin-3-yl]-6-methyl-1,6-dihydro-7H-pyrrolo[2,3-c]pyridin-7-one], the “increase in PGRN protein levels” value is “significantly enhance PGRN protein levels”.

With `Cn1cc(-c2cccnc2Sc2ccc(F)cc2)c2cc[nH]c2c1=O` [Compound 84A, 4-(2-((4-fluorophenyl)thio)pyridin-3-yl)-6-methyl-1,6-dihydro-7H-pyrrolo[2,3-c]pyridin-7-one], the “increase in PGRN protein levels” value is given as “less substantial response”.

Take `Cn1ccc2c(-c3cc(F)cnc3Oc3ccc(F)cc3)c[nH]c2c1=O` [Compound 86B, 3-(5-fluoro-2-(4-fluorophenoxy)pyridin-3-yl)-6-methyl-1,6-dihydro-7H-pyrrolo[2,3-c]pyridin-7-one]: the “increase in PGRN protein levels” value is listed as “unable to upregulate PGRN”.

Consider `Cn1ccc2c(-c3cccnc3Oc3ccc(F)c(F)c3)c[nH]c2c1=O` [Compound 81B, 3-(2-(3,4-difluorophenoxy)pyridin-3-yl)-6-methyl-1,6-dihydro-7H-pyrrolo[2,3-c]pyridin-7-one], for which the “increase in PGRN protein levels” value is recorded as “significantly enhance PGRN protein levels”.
